We go through eight compounds from article PMC7252619 (PLoS ONE, 2020).

Values joined by “and” are separate entries in the source; they are usually repeats but may differ in a detail not shown here. Equal values may be shown once. Read-outs that look alike come from different tables or passages of the source.

What all share (assay): Kinase activity test (ReactionBiology), % enzyme activity relative to DMSO
Type in all cases: biochemical

One assay addresses T1, DAPK1 (Homo sapiens, UniProt P53355).
T1 construct: purchased ReactionBiology

A further assay concerns the target T2, CK1d (Homo sapiens, UniProt P48730).
T2 construct: purchased ReactionBiology

Another assay concerns the target T3, EPHB4 (Homo sapiens, UniProt P54760).
T3 construct: purchased ReactionBiology
T3 sequence (P54760 16-987): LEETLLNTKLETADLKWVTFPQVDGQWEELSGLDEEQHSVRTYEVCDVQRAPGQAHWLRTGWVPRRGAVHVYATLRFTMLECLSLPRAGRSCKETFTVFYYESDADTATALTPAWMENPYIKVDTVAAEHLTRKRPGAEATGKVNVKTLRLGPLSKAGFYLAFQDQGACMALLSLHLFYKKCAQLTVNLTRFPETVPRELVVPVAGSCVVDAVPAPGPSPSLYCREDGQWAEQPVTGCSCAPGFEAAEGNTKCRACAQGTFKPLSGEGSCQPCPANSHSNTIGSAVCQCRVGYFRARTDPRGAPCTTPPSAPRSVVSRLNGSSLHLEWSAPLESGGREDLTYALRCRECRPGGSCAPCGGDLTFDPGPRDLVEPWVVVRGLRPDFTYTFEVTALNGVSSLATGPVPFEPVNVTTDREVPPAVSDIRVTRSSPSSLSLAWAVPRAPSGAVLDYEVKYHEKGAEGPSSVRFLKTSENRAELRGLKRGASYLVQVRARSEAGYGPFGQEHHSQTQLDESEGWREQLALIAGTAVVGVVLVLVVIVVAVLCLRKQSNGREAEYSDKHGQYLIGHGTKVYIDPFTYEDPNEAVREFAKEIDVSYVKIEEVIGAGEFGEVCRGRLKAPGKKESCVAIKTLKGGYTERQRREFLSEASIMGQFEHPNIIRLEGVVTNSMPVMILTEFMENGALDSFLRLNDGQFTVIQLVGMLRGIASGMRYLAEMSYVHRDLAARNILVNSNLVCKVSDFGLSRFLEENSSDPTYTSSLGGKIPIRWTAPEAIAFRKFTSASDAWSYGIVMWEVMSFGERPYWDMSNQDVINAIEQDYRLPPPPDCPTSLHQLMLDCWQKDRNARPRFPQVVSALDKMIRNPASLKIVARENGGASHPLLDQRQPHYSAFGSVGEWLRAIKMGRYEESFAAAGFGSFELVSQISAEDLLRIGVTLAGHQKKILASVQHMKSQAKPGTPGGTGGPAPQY

In a further assay the target is VEGFR2 (Homo sapiens, UniProt P35968). More on the design: purchased ReactionBiology. The conditions noted are these: for % Enzyme Activity (relative to DMSO controls), Average / remaining activity at 1 µM / remaining activity at 10 µM: VEGFR2.
Sequence of VEGFR2 (P35968 20-1356): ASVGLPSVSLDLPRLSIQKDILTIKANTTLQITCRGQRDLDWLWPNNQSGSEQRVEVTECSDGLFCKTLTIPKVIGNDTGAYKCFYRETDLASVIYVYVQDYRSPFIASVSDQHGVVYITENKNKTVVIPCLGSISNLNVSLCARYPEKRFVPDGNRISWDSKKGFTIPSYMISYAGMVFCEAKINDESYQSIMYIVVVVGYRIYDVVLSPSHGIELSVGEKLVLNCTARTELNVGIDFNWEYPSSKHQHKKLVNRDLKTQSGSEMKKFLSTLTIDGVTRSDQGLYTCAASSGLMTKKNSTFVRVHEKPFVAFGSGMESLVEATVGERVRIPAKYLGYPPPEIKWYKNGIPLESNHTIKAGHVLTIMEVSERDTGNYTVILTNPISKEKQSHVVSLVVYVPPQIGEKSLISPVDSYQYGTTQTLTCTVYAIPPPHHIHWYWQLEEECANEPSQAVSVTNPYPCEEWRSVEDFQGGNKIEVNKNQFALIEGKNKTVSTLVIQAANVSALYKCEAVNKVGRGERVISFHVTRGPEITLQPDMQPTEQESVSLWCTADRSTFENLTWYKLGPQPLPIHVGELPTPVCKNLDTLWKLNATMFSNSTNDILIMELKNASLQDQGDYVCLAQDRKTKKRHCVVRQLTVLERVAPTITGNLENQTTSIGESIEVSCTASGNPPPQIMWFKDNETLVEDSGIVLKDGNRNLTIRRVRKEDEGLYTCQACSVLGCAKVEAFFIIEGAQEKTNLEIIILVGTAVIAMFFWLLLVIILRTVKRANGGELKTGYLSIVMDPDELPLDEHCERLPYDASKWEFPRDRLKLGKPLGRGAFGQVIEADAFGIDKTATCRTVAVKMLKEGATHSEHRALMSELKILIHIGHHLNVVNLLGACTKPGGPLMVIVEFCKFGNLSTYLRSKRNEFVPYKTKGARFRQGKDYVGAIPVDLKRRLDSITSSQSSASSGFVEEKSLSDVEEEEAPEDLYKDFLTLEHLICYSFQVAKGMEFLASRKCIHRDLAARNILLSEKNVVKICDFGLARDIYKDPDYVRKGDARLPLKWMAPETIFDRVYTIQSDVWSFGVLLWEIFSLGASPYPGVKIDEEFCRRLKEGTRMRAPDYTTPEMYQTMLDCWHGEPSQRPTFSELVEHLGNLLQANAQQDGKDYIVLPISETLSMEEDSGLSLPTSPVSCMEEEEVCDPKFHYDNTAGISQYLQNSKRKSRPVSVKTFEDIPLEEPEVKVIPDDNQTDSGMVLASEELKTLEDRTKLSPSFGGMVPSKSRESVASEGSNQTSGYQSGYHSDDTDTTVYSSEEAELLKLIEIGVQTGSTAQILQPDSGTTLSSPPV
Where [1] appears, read: DAPK1, 1 uM, Average, read-out: % Enzyme Activity (relative to DMSO controls), Average.
[2] abbreviates: DAPK1, 1 uM, replicate Data 1, read-out: % Enzyme Activity (relative to DMSO controls), Data 1.
Setting [3] is: DAPK1, 1 uM, replicate Data 2, read-out: % Enzyme Activity (relative to DMSO controls), Data 2.
The mark [4] stands for this setting: DAPK1, 10 uM, Average, read-out: % Enzyme Activity (relative to DMSO controls), Average.
[5] abbreviates: DAPK1, 10 uM, replicate Data 1, read-out: % Enzyme Activity (relative to DMSO controls), Data 1.
Setting [6] is: DAPK1, 10 uM, replicate Data 2, read-out: % Enzyme Activity (relative to DMSO controls), Data 2.
[7] abbreviates: EPHB4, 1 uM, Average, read-out: % Enzyme Activity (relative to DMSO controls), Average.
Setting [8] is: EPHB4, 1 uM, replicate Data 1, read-out: % Enzyme Activity (relative to DMSO controls), Data 1.
The mark [9] stands for this setting: EPHB4, 1 uM, replicate Data 2, read-out: % Enzyme Activity (relative to DMSO controls), Data 2.
The mark [10] stands for this setting: EPHB4, 10 uM, Average, read-out: % Enzyme Activity (relative to DMSO controls), Average.
Setting [11] is: EPHB4, 10 uM, replicate Data 1, read-out: % Enzyme Activity (relative to DMSO controls), Data 1.
The mark [12] stands for this setting: EPHB4, 10 uM, replicate Data 2, read-out: % Enzyme Activity (relative to DMSO controls), Data 2.
Setting [13] is: read-out: % Enzyme Activity (relative to DMSO controls), Average.
Where [14] appears, read: read-out: % Enzyme Activity (relative to DMSO controls), Data 1.
The mark [15] stands for this setting: read-out: % Enzyme Activity (relative to DMSO controls), Data 2.

T2 sequence (P48730 whole entry): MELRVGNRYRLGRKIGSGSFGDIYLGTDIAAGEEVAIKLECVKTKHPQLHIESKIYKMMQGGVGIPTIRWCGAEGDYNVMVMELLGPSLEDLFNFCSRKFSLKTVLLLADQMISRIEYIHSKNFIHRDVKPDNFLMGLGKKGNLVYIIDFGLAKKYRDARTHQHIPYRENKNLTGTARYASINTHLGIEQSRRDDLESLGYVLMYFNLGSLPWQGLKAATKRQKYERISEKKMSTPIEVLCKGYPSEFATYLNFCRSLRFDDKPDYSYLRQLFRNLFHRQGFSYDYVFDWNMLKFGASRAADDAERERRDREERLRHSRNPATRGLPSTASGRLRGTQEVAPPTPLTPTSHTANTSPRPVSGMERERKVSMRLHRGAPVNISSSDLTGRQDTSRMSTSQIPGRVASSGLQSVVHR
T1 sequence (P53355 whole entry): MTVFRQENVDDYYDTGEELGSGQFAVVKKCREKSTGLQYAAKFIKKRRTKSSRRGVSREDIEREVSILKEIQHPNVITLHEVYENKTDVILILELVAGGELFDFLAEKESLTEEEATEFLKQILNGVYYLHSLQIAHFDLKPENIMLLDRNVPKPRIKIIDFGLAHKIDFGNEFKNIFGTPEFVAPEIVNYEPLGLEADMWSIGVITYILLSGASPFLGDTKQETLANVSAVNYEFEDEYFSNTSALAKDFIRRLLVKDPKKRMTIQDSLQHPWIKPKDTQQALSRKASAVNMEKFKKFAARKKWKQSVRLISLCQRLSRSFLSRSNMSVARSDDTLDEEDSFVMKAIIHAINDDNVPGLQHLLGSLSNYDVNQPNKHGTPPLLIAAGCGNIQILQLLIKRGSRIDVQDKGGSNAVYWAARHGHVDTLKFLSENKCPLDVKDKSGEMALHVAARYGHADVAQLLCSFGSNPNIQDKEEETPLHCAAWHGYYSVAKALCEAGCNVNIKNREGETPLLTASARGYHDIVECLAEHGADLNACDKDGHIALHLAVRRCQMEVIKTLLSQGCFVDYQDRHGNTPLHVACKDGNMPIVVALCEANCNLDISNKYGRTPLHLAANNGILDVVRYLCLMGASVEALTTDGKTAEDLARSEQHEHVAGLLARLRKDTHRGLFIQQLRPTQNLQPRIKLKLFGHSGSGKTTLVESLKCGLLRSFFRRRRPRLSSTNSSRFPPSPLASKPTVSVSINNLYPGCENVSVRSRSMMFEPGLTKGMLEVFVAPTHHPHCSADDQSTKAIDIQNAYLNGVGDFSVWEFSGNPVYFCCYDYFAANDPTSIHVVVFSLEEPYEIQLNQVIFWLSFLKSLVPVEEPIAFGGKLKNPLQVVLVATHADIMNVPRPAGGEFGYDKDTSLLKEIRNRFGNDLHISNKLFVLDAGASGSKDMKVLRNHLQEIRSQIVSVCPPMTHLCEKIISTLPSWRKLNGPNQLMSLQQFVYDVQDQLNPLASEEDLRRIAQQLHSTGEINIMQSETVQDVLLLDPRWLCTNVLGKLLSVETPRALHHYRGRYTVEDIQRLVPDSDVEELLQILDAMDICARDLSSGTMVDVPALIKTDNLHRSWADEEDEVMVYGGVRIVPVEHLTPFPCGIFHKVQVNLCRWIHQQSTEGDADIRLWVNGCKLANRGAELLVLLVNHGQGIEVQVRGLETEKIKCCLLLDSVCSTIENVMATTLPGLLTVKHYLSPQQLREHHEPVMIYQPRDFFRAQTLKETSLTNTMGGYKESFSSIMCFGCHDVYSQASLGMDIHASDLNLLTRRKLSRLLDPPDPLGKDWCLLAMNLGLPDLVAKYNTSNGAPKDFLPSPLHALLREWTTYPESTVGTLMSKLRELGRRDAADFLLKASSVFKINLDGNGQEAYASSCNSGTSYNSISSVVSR

Regarding `NCCCCCC(=O)O` [Aminocaproic acid], the remaining activity at 1 µM at DAPK1 (setting [1]) came out at 114%; at DAPK1 (setting [2]) it was 116%; at DAPK1 (setting [3]), 112%; on CK1d (CK1d, 1 uM, Average, read-out: % Enzyme Activity (relative to DMSO controls), Average) it was 118%; on CK1d (CK1d, 1 uM, replicate Data 1, read-out: % Enzyme Activity (relative to DMSO controls), Data 1), 116%; on CK1d (CK1d, 1 uM, replicate Data 2, read-out: % Enzyme Activity (relative to DMSO controls), Data 2) it was 120%. Moreover, the figures for the remaining activity at 1 µM on EPHB4 (setting [7]), at EPHB4 (setting [8]) and at EPHB4 (setting [9]) were 103%, 103% and 104%, respectively. In addition, the remaining activity at 10 µM is 110% at DAPK1 (setting [4]); 109% on DAPK1 (setting [5]); 111% on DAPK1 (setting [6]); 125% on CK1d (CK1d, 10 uM, Average, read-out: % Enzyme Activity (relative to DMSO controls), Average); 122% on CK1d (CK1d, 10 uM, replicate Data 1, read-out: % Enzyme Activity (relative to DMSO controls), Data 1); 127% at CK1d (CK1d, 10 uM, replicate Data 2, read-out: % Enzyme Activity (relative to DMSO controls), Data 2). The values for the remaining activity at 10 µM at EPHB4 (setting [10]), on EPHB4 (setting [11]) and at EPHB4 (setting [12]) were 93.5%, 92.2% and 94.7%, respectively.
Turning to `Cc1ccc(-c2cc(C(F)(F)F)nn2-c2ccc(S(N)(=O)=O)cc2)cc1` [Celecoxib], the “% Enzyme Activity (relative to DMSO controls), Average” value at CK1d (CK1d, 1 uM, Average) amounted to 94.68%; on EPHB4 (EPHB4, 1 uM, Average), 103.20%; at EPHB4 (EPHB4, 10 uM, Average) it was 99.23%; at VEGFR2 (1 uM, Average) it was 113.33%; at VEGFR2 (10 uM, Average) it was 110.02%.
`CN1CCC[C@H]1c1cccnc1` [Nicotine]: on DAPK1, the “% Enzyme Activity (relative to DMSO controls), Average” value is 100.32% and 100.82%; the “% Enzyme Activity (relative to DMSO controls), Data 1” value was 100.9% and 106.33%; the “% Enzyme Activity (relative to DMSO controls), Data 2” value is 99.74% and 95.31%. For the same compound, on EPHB4, the “% Enzyme Activity (relative to DMSO controls), Average” value is 98.32% and 87.80%; the “% Enzyme Activity (relative to DMSO controls), Data 1” value is 99.28% and 89.89%; the “% Enzyme Activity (relative to DMSO controls), Data 2” value was 97.35% and 85.7%.
Take `Fc1ccc([C@@H]2CCNC[C@H]2COc2ccc3c(c2)OCO3)cc1` [Paroxetine]: the “% Enzyme Activity (relative to DMSO controls), Average” value at CK1d (CK1d, 10 uM, Average) is 105.10%; at EPHB4 (EPHB4, 1 uM, Average) it was 110.35%; at EPHB4 (EPHB4, 10 uM, Average), 94.48%; at VEGFR2 (1 uM, Average), 108.60%; at VEGFR2 (10 uM, Average), 108.08%.
With `CC(C)c1cccc(C(C)C)c1O` [Propofol, reference compound], the remaining activity at 1 µM was 107% on DAPK1 (setting [13]); 113% on DAPK1 (setting [14]); 102% at DAPK1 (setting [15]); 126% at CK1d (setting [13]); 145% at CK1d (setting [14]); 108% on CK1d (setting [15]). Further, the remaining activity at 1 µM at EPHB4 (setting [13]) came out at 67%; on EPHB4 (setting [14]), 76%; at EPHB4 (setting [15]), 57.9%; at EPHB4 (read-out: % Enzyme activity at 1μM), 67%. Moreover, the remaining activity at 10 µM at DAPK1 (setting [13]) was 86.5%; at DAPK1 (setting [14]) it was 86.4%; at DAPK1 (setting [15]), 86.5%; at CK1d (setting [13]), 112%; on CK1d (setting [14]), 116%; at CK1d (setting [15]) it was 108%. For the same compound, the remaining activity at 10 µM amounted to 68.4% on EPHB4 (setting [13]), 68.4% on EPHB4 (setting [14]), 68.5% at EPHB4 (setting [15]) and 68.4% on EPHB4 (read-out: % Enzyme activity at 10μM).
With `CC(C)c1nc(CN(C)C(=O)N[C@H](C(=O)N[C@@H](Cc2ccccc2)C[C@H](O)[C@H](Cc2ccccc2)NC(=O)OCc2cncs2)C(C)C)cs1` [Ritonavir, reference compound], the remaining activity at 1 µM was 92.6% at DAPK1 (setting [1]); 94.8% on DAPK1 (setting [2]); 90.4% on DAPK1 (setting [3]); 92.6% at DAPK1 (DAPK1, compound 1μM, relative to DMSO controls, read-out: % Enzyme activity at 1μM); 99.2% on EPHB4 (setting [7]); 99.5% on EPHB4 (setting [8]). The remaining activity at 1 µM at EPHB4 (setting [9]) was 98.9%; at VEGFR2 (1 uM, Average, read-out: % Enzyme Activity (relative to DMSO controls), Average) it was 111%; at VEGFR2 (1 uM, replicate Data 1, read-out: % Enzyme Activity (relative to DMSO controls), Data 1), 111%; on VEGFR2 (1 uM, replicate Data 2, read-out: % Enzyme Activity (relative to DMSO controls), Data 2) it was 112%. For the same compound, the remaining activity at 10 µM at DAPK1 (setting [4]) worked out at 38.5%; on DAPK1 (setting [5]), 39.2%; at DAPK1 (setting [6]), 37.7%; at DAPK1 (DAPK1, compound 10μM, relative to DMSO controls, read-out: % Enzyme activity at 10μM) it was 38.5%; at EPHB4 (setting [10]), 95.1%; at EPHB4 (setting [11]), 97.2%. For the same compound, the remaining activity at 10 µM on EPHB4 (setting [12]) was determined as 93.1%; at VEGFR2 (10 uM, Average, read-out: % Enzyme Activity (relative to DMSO controls), Average), 109%; on VEGFR2 (10 uM, replicate Data 1, read-out: % Enzyme Activity (relative to DMSO controls), Data 1) it was 113%; on VEGFR2 (10 uM, replicate Data 2, read-out: % Enzyme Activity (relative to DMSO controls), Data 2), 106%.
Take `CS(=O)(=O)c1ccc(C2=C(c3ccccc3)C(=O)OC2)cc1` [Rofecoxib]: the “% Enzyme Activity (relative to DMSO controls), Average” value is recorded as 107.94% on DAPK1 (DAPK1, 1 uM, Average); 91.65% at DAPK1 (DAPK1, 10 uM, Average); 93.84% on EPHB4 (EPHB4, 1 uM, Average); 82.31% at EPHB4 (EPHB4, 10 uM, Average). For the same compound, the “% Enzyme Activity (relative to DMSO controls), Data 1” value on DAPK1 (DAPK1, 1 uM, replicate Data 1) is recorded as 111.72%; at DAPK1 (DAPK1, 10 uM, replicate Data 1), 92.47%; on EPHB4 (EPHB4, 1 uM, replicate Data 1), 92.91%; on EPHB4 (EPHB4, 10 uM, replicate Data 1), 77.99%. Moreover, the “% Enzyme Activity (relative to DMSO controls), Data 2” value at DAPK1 (DAPK1, 1 uM, replicate Data 2) stood at 104.16%; on DAPK1 (DAPK1, 10 uM, replicate Data 2), 90.82%; on EPHB4 (EPHB4, 1 uM, replicate Data 2), 94.77%; on EPHB4 (EPHB4, 10 uM, replicate Data 2), 86.63%.
Regarding `Nc1c2c(nc3ccccc13)CCCC2` [Tacrine], the “% Enzyme Activity (relative to DMSO controls), Data 2” value is 118.35% at CK1d; 73.14% and 73.39% on EPHB4; 94.26% and 99.54% on VEGFR2.
